Reference: PubChem BioAssay AID2060511 (Molecular Pharmacology Branch, DTP, NCI, 2025)

Test system: 422866-222-R5-J1-PDC spheroids with HUVEC/MSC, viability
Test: Anticancer human tumor 422866-222-R5-J1-PDC patient-derived pancreatic adenocarcinoma cell line growth inhibition [GQUAD]
Details: for IC50: curve of first compound; for viability, T/C: stronger effect = lower value
Source text: DNA G-quadruplex Stabilizer Agents in Combinations in Complex Spheroids
A high-throughput screen of multi-cell type tumor spheroids was designed to identify active combinations of DNA G-quadruplex stabilizer agents and targeted small molecules. Complex spheroids include a stromal component modeled by human endothelial cells (HUVEC) and fibroblasts modeled by human mesenchymal stem cells (MSCs). The concentration ranges selected for each drug and investigational agent were based upon clinically achievable concentrations if the clinical Cmax of the agent was known.
Compounds. The drugs and investigational agents: pidnarulex (CX-5461; NSC782164), APTO-253 (NSC789042), BRACO-19 (NSC847499), peposertib (NSC802822), ceralasertib (NSC780249), elimusertib (NSC800525), camonsertib (NSC841442), AZD-1390 (NSC803789), olaparib (NSC753686), talazoparib (NSC767125), ART-558 (NSC835418), sotorasib (NSC818433), MRTX-1133 (NSC836407), SN-38 (NSC673596), topotecan (NSC609699), etoposide (NSC141540), doxorubicin (NSC123127), gemcitabine (NSC613327), 5-fluorouracil (NSC19893), paclitaxel (NSC125973), vemurafenib (NSC761431), panobinostat (NSC761190), R-306465 (JNJ-16241199; NSC773264), adavosertib (NSC754352), TP-3654 (NSC805149), carboplatin (NSC241240), KSQ-4279 (NSC840948), and staurosporine (NSC755774) were obtained from the National Cancer Institute (NCI) Developmental Therapeutics Program Chemical Repository (34). The FDA-approved anticancer drug set is available from the NCI Developmental Therapeutics Program. […] The stock solutions were prepared in dimethyl sulfoxide (DMSO, Sigma-Aldrich, St. Louis, MO, cat. D2650) at 800-fold the tested concentration and stored at -70 degrees C prior to their use. All drugs and investigational agents were tested over a range starting from a high concentration at or near the clinical Cmax and decreasing in half-log increments. If the clinical Cmax for an agent had not been determined, the highest concentration tested was 10 microM.
2.3 Cell Culture. All cells were maintained in an incubator at 37 degrees C and 5% CO2 with 95% humidity. The PDC lines were cultured according to standard operating procedures established by the NCI PDMR. All PDCs were thawed and cultured in Matrigel-coated flasks prepared with a working solution of 1X Ham's F-12 nutrient mix, without supplementation (Invitrogen, cat. 11765054), 100 U/mL penicillin-streptomycin (Invitrogen, cat. 15140122), and 2.5% Matrigel (Corning Inc., cat. 354248) for the first three passages. The 857933-349-R-J2-PDC line was cultured in 6C/Colon 1B media, which includes advanced DMEM/F-12 (Thermo Fisher Scientific, cat. 12634028), 10 mM HEPES (Thermo Fisher Scientific, cat. 15630080), 1X GlutaMAX supplement (Thermo Fisher Scientific, cat. 35050061), 0.1 mg/mL primocin (InvivoGen, cat. ant-pm-2), 10% defined fetal bovine serum, heat inactivated (HyClone Laboratories Inc., cat. SH30070.03HI), 50% L-WRN conditioned media (ATCC, cat. CRL-3276), 1.25 mM N-Acetyl-L-cysteine (Sigma-Aldrich, cat. A9165), 10 mM nicotinamide (Sigma-Aldrich, cat. N0636), 1X B-27 supplement (Thermo Fisher Scientific, cat. 17504044), 1X N-2 supplement (Thermo Fisher Scientific, cat. 17502048), 10 microM Y-27632 dihydrochloride (Tocris Bioscience, cat. 1254), and 50 ng/mL human EGF recombinant protein (Thermo Fisher Scientific, cat. PHG0311). The 485176-168-R4-J1-PDC line was cultured in Panc media, which includes all 6C/Colon 1B media components plus 100 ng/mL human FGF-10 (Thermo Fisher Scientific, cat. 100-26), 500 nM SB-431542 (Selleckchem, cat. S1067), and gastrin (Tocris, cat. 3006).
[…]

[1] = second compound 0.0316 µM, first compound 0.0316 µM
[2] = second compound 0.0316 µM, first compound 0.1 µM
[3] = second compound 0.0316 µM, first compound 0.316 µM
[4] = second compound 0.0316 µM, first compound 1 µM
[5] = second compound 0.0316 µM, first compound 3.16 µM
[6] = second compound 0.0316 µM, first compound 10 µM
[7] = second compound 0.1 µM, first compound 0.0316 µM
[8] = second compound 0.1 µM, first compound 0.1 µM
[9] = second compound 0.1 µM, first compound 0.316 µM
[10] = second compound 0.1 µM, first compound 1 µM
[11] = second compound 0.1 µM, first compound 3.16 µM
[12] = second compound 0.1 µM, first compound 10 µM
[13] = second compound 0.316 µM, first compound 0.0316 µM
[14] = second compound 0.316 µM, first compound 0.1 µM
[15] = second compound 0.316 µM, first compound 0.316 µM
[16] = second compound 0.316 µM, first compound 1 µM
[17] = second compound 0.316 µM, first compound 3.16 µM
[18] = second compound 0.316 µM, first compound 10 µM
[19] = second compound 1 µM, first compound 0.0316 µM
[20] = second compound 1 µM, first compound 0.1 µM
[21] = second compound 1 µM, first compound 0.316 µM
[22] = second compound 1 µM, first compound 1 µM
[23] = second compound 1 µM, first compound 3.16 µM
[24] = second compound 1 µM, first compound 10 µM
[25] = second compound 3.16 µM, first compound 0.0316 µM
[26] = second compound 3.16 µM, first compound 0.1 µM
[27] = second compound 3.16 µM, first compound 0.316 µM
[28] = second compound 3.16 µM, first compound 1 µM
[29] = second compound 3.16 µM, first compound 3.16 µM
[30] = second compound 3.16 µM, first compound 10 µM
[31] = second compound 10 µM, first compound 0.0316 µM
[32] = second compound 10 µM, first compound 0.1 µM
[33] = second compound 10 µM, first compound 0.316 µM
[34] = second compound 10 µM, first compound 1 µM
[35] = second compound 10 µM, first compound 3.16 µM
[36] = second compound 10 µM, first compound 10 µM
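Further: spheroids exposed to compounds for seven days before reading.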
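Wherever viability, T/C is given: percent viability relative to DMSO vehicle control taken as 100%.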

Compound: CC(=O)O[C@H]1C(=O)[C@@]2(C)[C@H]([C@H](OC(=O)c3ccccc3)[C@]3(O)C[C@H](OC(=O)[C@H](O)[C@@H](NC(=O)c4ccccc4)c4ccccc4)C(C)=C1C3(C)C)[C@]1(OC(C)=O)CO[C@@H]1C[C@@H]2O + Cc1cnc(CNC(=O)c2c(=O)c3ccc(N4CCCN(C)CC4)nc3n3c2sc2ccccc23)cn1
- IC50 (second compound 0.0316 µM): > 10 µM
- IC50 (second compound 0.1 µM): > 10 µM
- IC50 (second compound 0.316 µM): > 10 µM
- IC50 (second compound 1 µM): > 10 µM
- IC50 (second compound 3.16 µM): > 10 µM
- IC50 (second compound 10 µM): > 10 µM
- viability, T/C [1]: 81%
- viability, T/C [2]: 67.2%
- viability, T/C [3]: 80.3%
- viability, T/C [4]: 71.9%
- viability, T/C [5]: 73.8%
- viability, T/C [6]: 91.6%
- viability, T/C [7]: 88%
- viability, T/C [8]: 86.3%
- viability, T/C [9]: 77.1%
- viability, T/C [10]: 86.2%
- viability, T/C [11]: 95.5%
- viability, T/C [12]: 97.4%
- viability, T/C [13]: 89.5%
- viability, T/C [14]: 82.8%
- viability, T/C [15]: 85.3%
- viability, T/C [16]: 107%
- viability, T/C [17]: 115%
- viability, T/C [18]: 117%
- viability, T/C [19]: 79.2%
- viability, T/C [20]: 74.6%
- viability, T/C [21]: 86.5%
- viability, T/C [22]: 94.5%
- viability, T/C [23]: 117%
- viability, T/C [24]: 119%
- viability, T/C [25]: 83.3%
- viability, T/C [26]: 94.5%
- viability, T/C [27]: 94.1%
- viability, T/C [28]: 91.7%
- viability, T/C [29]: 118%
- viability, T/C [30]: 107%
- viability, T/C [31]: 80.1%
- viability, T/C [32]: 78.8%
- viability, T/C [33]: 71.6%
- viability, T/C [34]: 101%
- viability, T/C [35]: 104%
- viability, T/C [36]: 123%

Compound: CCCS(=O)(=O)Nc1ccc(F)c(C(=O)c2c[nH]c3ncc(-c4ccc(Cl)cc4)cc23)c1F + Cc1cnc(CNC(=O)c2c(=O)c3ccc(N4CCCN(C)CC4)nc3n3c2sc2ccccc23)cn1
- IC50 (second compound 0.0316 µM): > 10 µM
- IC50 (second compound 0.1 µM): > 10 µM
- IC50 (second compound 0.316 µM): > 10 µM
- IC50 (second compound 1 µM): > 10 µM
- IC50 (second compound 3.16 µM): > 10 µM
- IC50 (second compound 10 µM): > 10 µM
- viability, T/C [1]: 96.8%
- viability, T/C [2]: 89.2%
- viability, T/C [3]: 117%
- viability, T/C [4]: 109%
- viability, T/C [5]: 145%
- viability, T/C [6]: 54.9%
- viability, T/C [7]: 93.9%
- viability, T/C [8]: 87.3%
- viability, T/C [9]: 115%
- viability, T/C [10]: 92%
- viability, T/C [11]: 109%
- viability, T/C [12]: 84.7%
- viability, T/C [13]: 78.6%
- viability, T/C [14]: 90.4%
- viability, T/C [15]: 90%
- viability, T/C [16]: 115%
- viability, T/C [17]: 102%
- viability, T/C [18]: 86.6%
- viability, T/C [19]: 73.2%
- viability, T/C [20]: 80.7%
- viability, T/C [21]: 87.2%
- viability, T/C [22]: 110%
- viability, T/C [23]: 111%
- viability, T/C [24]: 86%
- viability, T/C [25]: 72.9%
- viability, T/C [26]: 80.9%
- viability, T/C [27]: 85.5%
- viability, T/C [28]: 93.7%
- viability, T/C [29]: 95.1%
- viability, T/C [30]: 88.7%
- viability, T/C [31]: 69.2%
- viability, T/C [32]: 76.2%
- viability, T/C [33]: 109%
- viability, T/C [34]: 86.8%
- viability, T/C [35]: 96%
- viability, T/C [36]: 94.2%
